One data set concerns Mus musculus. Kind of data set: Upregulation of plasma EPO level in Balb/c mouse at 10 mg/kg, po administered as single dose measured after 8 hrs by ELISA. The class given is functional. (In general: In an ELISA, binding on a coated surface is turned into a signal by an enzyme label.)
A further data set can be described thus: in vitro. To be noted: human, Caco-2.
For data set [1], the system named is Rattus norvegicus. Nature of the data set: Upregulation of plasma EPO level in CD(SD) rat at 10 mg/kg, po administered as single dose measured after 8 hrs by RIA. The class given is functional.
Data set [2] deals with Rattus norvegicus. Kind of data set: Toxicity in CD(SD) rat assessed as induction of anorexia at 100 mg/kg, po administered as single dose. It counts as organism-based. To be noted: in vivo.

We go through ten compounds from ChEMBL document CHEMBL4138259, “Discovery of JTZ-951: A HIF Prolyl Hydroxylase Inhibitor for the Treatment of Renal Anemia” (ACS Med Chem Lett, 2017).

Some results are limits rather than exact numbers.

The Papp A→B is how fast a substance crosses the layer from the apical side. As for `Cl.O=C(O)CNC(=O)c1c(O)cc(-c2ccccc2)n2ncnc12`, the Activity in the data set with Mus musculus is under 320 pg/mL. In addition, the Papp A→B at 2 h, 25 µM in the data set “in vitro” stood at 2.5 ×10⁻⁶ cm/s.

Turning to `O=C(O)CNC(=O)c1c(O)cc(-c2cccc(Cl)c2)n2ncnc12`, the Activity in the data set on Mus musculus was over 15000 pg/mL; in the data set on Rattus norvegicus [1], 7900 pg/mL; in the data set on Rattus norvegicus [2] it was “Toxic”. The Papp A→B at 2 h, 25 µM in “in vitro” turned out to be 6.1 ×10⁻⁶ cm/s.

In the case of `Cl.O=C(O)CNC(=O)c1c(O)cc(CCc2ccccc2)c2ncnn12`, the Activity with Mus musculus was under 320 pg/mL. In the data set “in vitro”, this compound showed a Papp A→B at 2 h, 25 µM of 9.3 ×10⁻⁶ cm/s.

The compound `O=C(O)CNC(=O)c1c(O)cc(-c2cccc(Cl)c2)c2ncnn12` yielded an Activity with Mus musculus of under 265 pg/mL. Further, the Papp A→B at 2 h, 25 µM in the data set “in vitro” is 15 ×10⁻⁶ cm/s.

In the data set with Mus musculus, `Cc1nc2c(C(=O)NCC(=O)O)c(O)cc(CCc3ccccc3)n2n1.Cl` showed an Activity of under 260 pg/mL. This compound came in with a Papp A→B at 2 h, 25 µM in the data set “in vitro” of 8.9 ×10⁻⁶ cm/s.

The compound `CCCc1cc(O)c(C(=O)NCC(=O)O)c2ncnn12.Cl` showed an Activity in the data set with Mus musculus of under 300 pg/mL. The compound further returned a Papp A→B at 2 h, 25 µM in the data set “in vitro” of 2.1 ×10⁻⁶ cm/s.

The compound `Cl.O=C(O)CNC(=O)c1c(O)cc(C2CCCCC2)n2ncnc12` registered an Activity with Mus musculus of 540 pg/mL. In the data set “in vitro”, this compound came in with a Papp A→B at 2 h, 25 µM of 21 ×10⁻⁶ cm/s.

In the data set with Mus musculus, `Cl.O=C(O)CNC(=O)c1c(O)cc(C2CCCCC2)c2ncnn12` displayed an Activity of under 450 pg/mL. The same compound returned a Papp A→B at 2 h, 25 µM in “in vitro” of 18 ×10⁻⁶ cm/s.

`Cl.O=C(O)CNC(=O)c1c(O)ccc2ncnn12`: the Papp A→B at 2 h, 25 µM in the data set “in vitro” is 0.4 ×10⁻⁶ cm/s.

For the compound `Cl.O=C(O)CNC(=O)c1c(O)cc(-c2ccccc2)c2ncnn12`, in the data set with Mus musculus, the Activity was under 260 pg/mL. Also, the Papp A→B at 2 h, 25 µM in “in vitro” is 6.5 ×10⁻⁶ cm/s.
